Laboratory results taken from the NIST ThermoML archive (doi:10.1016/j.fluid.2010.07.015).
Numbers after ± are expanded uncertainties.

Assay: wn = mass fraction of the nth substance listed
Conditions: 101 kPa, Radial Heat Flow Method

[Al] [aluminum] + [Sn]
Conditions | thermal conductivity [W/m/K]
323 K, Crystal, w1 = 0.022 | 98.8 ± 22
323 K, Crystal, w1 = 0.25 | 139.3 ± 33
323 K, Crystal, w1 = 0.5 | 191.7 ± 43
323 K, Crystal, w1 = 0.75 | 235.5 ± 52
343 K, Crystal, w1 = 0.022 | 97.4 ± 23
343 K, Crystal, w1 = 0.25 | 136.8 ± 30
343 K, Crystal, w1 = 0.5 | 185.3 ± 44
343 K, Crystal, w1 = 0.75 | 233.7 ± 52
363 K, Crystal, w1 = 0.005 | 83.5 ± 22
363 K, Crystal, w1 = 0.022 | 93.3 ± 22
363 K, Crystal, w1 = 0.25 | 135.9 ± 31
363 K, Crystal, w1 = 0.5 | 180.6 ± 42
363 K, Crystal, w1 = 0.75 | 228.2 ± 52
383 K, Crystal, w1 = 0.005 | 79.5 ± 19
383 K, Crystal, w1 = 0.022 | 92.7 ± 20
383 K, Crystal, w1 = 0.25 | 132.3 ± 30
383 K, Crystal, w1 = 0.5 | 177 ± 40
383 K, Crystal, w1 = 0.75 | 224.4 ± 51
403 K, Crystal, w1 = 0.005 | 78.7 ± 17
403 K, Crystal, w1 = 0.022 | 92.9 ± 21
403 K, Crystal, w1 = 0.25 | 130.5 ± 31
403 K, Crystal, w1 = 0.5 | 174.6 ± 40
403 K, Crystal, w1 = 0.75 | 220.9 ± 49
423 K, Crystal, w1 = 0.005 | 78.5 ± 17
423 K, Crystal, w1 = 0.022 | 90.5 ± 21
423 K, Crystal, w1 = 0.25 | 125.4 ± 30
423 K, Crystal, w1 = 0.5 | 170.6 ± 40
423 K, Crystal, w1 = 0.75 | 217.6 ± 50
423 K, Crystal, w1 = 1 | 302.9 ± 70
443 K, Crystal, w1 = 0.005 | 77.8 ± 18
443 K, Crystal, w1 = 0.022 | 88.2 ± 21
443 K, Crystal, w1 = 0.25 | 123.9 ± 30
443 K, Crystal, w1 = 0.5 | 166.6 ± 41
443 K, Crystal, w1 = 0.75 | 211.4 ± 60
463 K, Crystal, w1 = 0.005 | 76.3 ± 17
463 K, Crystal, w1 = 0.022 | 86.3 ± 22
463 K, Crystal, w1 = 0.25 | 118 ± 29
463 K, Crystal, w1 = 0.5 | 160.1 ± 44
463 K, Crystal, w1 = 0.75 | 207 ± 48
473 K, Crystal, w1 = 1 | 288.3 ± 64
483 K, Crystal, w1 = 0.005 | 75.8 ± 22
483 K, Crystal, w1 = 0.022 | 82.7 ± 24
483 K, Crystal, w1 = 0.25 | 116.5 ± 29
483 K, Crystal, w1 = 0.5 | 152.6 ± 52
483 K, Crystal, w1 = 0.75 | 196.2 ± 69
493 K, Crystal, w1 = 0.005 | 69.7
493 K, Crystal, w1 = 0.022 | 80.3 ± 26
493 K, Crystal, w1 = 0.25 | 112.3 ± 53
493 K, Crystal, w1 = 0.5 | 142 ± 50
493 K, Crystal, w1 = 0.75 | 188.5
501 K, Liquid, w1 = 0.005 | 73.8
523 K, Crystal, w1 = 1 | 278.6 ± 62
573 K, Crystal, w1 = 1 | 261.8 ± 66
623 K, Crystal, w1 = 1 | 255.7 ± 80
673 K, Crystal, w1 = 1 | 244.8 ± 84
723 K, Crystal, w1 = 1 | 241.4 ± 78
773 K, Crystal, w1 = 1 | 238.6 ± 64
823 K, Crystal, w1 = 1 | 227.4 ± 68
873 K, Crystal, w1 = 1 | 226.1 ± 64
923 K, Crystal, w1 = 1 | 208.8 ± 69
933 K, Liquid, w1 = 1 | 235 ± 78

[Sn] [tin] + [Al]
thermal conductivity [W/m/K], w2 = 0
Conditions | 373 K | 393 K | 413 K | 433 K | 453 K | 473 K | 504 K
Crystal | 67.2 ± 28 | 65.2 ± 25 | 63.3 ± 26 | 61.7 ± 22 | 62.5 ± 23 | 60.6 ± 21 | –
Liquid | – | – | – | – | – | – | 67.2
